Columns and labels:
German cockroach = test: Pesticidal test against German cockroach, treated filter paper with sucrose bait (Test Example 6); format: in vivo; settings: Blattella germanica, 144 h; 500 ppm test liquid (Formulation Example 5), 0.7 ml on filter paper; two male adults; after 6 days
Excerpt: Two male adults of German cockroach (Blattalla germanica) were set free in the polyethylene cup, which was then kept covered. After 6 days, their survival was examined to determine the mortality.

Cullex pipiens pallens = test: whole plant or invertebrate; settings: 24 h
Procedure: In 100 ml of ion-exchanged water, the test liquid had been prepared as described above, was added dropwise in an amount of 0.7 ml (the concentration of active ingredient was 3.5 ppm). Twenty final-instar larvae of Cullex pipiens pallens (common mosquito) were set free in the solution. After 1 days, their survival was examined to determine the mortality.

[1] = test system: Diabrotica undecimpunctata; test: Pesticidal test against Diabrotica undecimpunctata, treated filter paper (Test Example 4); format: in vivo, Diabrotica undecimpunctata (southern-corn rootworm); settings: 50 ppm test liquid (Formulation Example 1), 1 ml on filter paper; 30 to 50 eggs and one germinated corn seed; 25° C.
Procedure: One germinated seed of corn and 30 to 50 eggs of Diabrotica undecimpunctata (southern-corn rootworm) was placed on the filter paper in the polyethylene cup, which was then kept covered and left in a room at 25° C. On the 6th day after, the number of surviving larvae of Diabrotica undecimpunctata was examined.

Musca domestics = test: Pesticidal test against Musca domestics, treated filter paper with sucrose bait (Test Example 5); format: in vivo; settings: 500 ppm test liquid (Formulation Example 5), 0.7 ml on filter paper, ten female adults, after 24 hours
Procedure: Ten female adults of Musca domestics (house fly) were set free in the polyethylene cup, which was then kept covered. After 24 hours, their survival was examined to determine the mortality.

| SMILES | melting point [°C] | mortality at 500 ppm (German cockroach) [%] | mortality at 3.5 µg/mL (Cullex pipiens pallens) [%] | number of surviving pests on the 6th day after [1] | mortality at 500 ppm (Musca domestics) [%] |
| --- | --- | --- | --- | --- | --- |
| CC/C=C\CCC(C#N)(C#N)Cc1ccc(Cl)cc1 [Compound 73, 2-(4-chlorobenzyl)-2-((Z)-3-hexenyl)malononitrile] | 44.8 |  |  |  |  |
| C=CCC(C#N)(C#N)Cc1ccc(Cl)c(Cl)c1 [Compound 23, 2-allyl-2-(3,4-dichlorobenzyl)malononitrile] |  | 100 | 100 | 0 |  |
| C=CCCC(C#N)(C#N)Cc1ccc(Cl)cc1 [Compound 4, 2-(3-butenyl)-2-(4-chlorobenzyl)malononitrile] |  | 100 | 100 | 0 | 100 |
| C=CCCC(C#N)(C#N)C(C)c1ccc(OC(F)(F)F)cc1 (stereo not drawn) [Compound 16, 2-(3-butenyl)-2-(1-(4-(trifluoromethoxy)phenyl)ethyl)malononitrile] |  | 100 | 100 | 0 |  |
| C=CCC(C#N)(C#N)C(c1ccc(Cl)cc1)C(C)C (stereo not drawn) [Compound 3, 2-allyl-2-(1-(4-chlorophenyl)-2-methylpropyl)malononitrile] |  | 100 | 100 | 0 | 100 |
| C=CCC(C#N)(C#N)Cc1ccc(C#N)cc1 [Compound 14, 2-allyl-2-(4-cyanobenzyl)malononitrile] | 81.9 |  |  |  |  |
| C=CCCC(C#N)(C#N)C(c1ccc(OC(F)(F)F)cc1)C(C)C (stereo not drawn) [Compound 12] |  |  |  | 0 |  |
| N#CC(C#N)(Cc1ccc(Cl)cc1)C1CCCCC1 [Compound 9, 2-(4-chlorobenzyl)-2-cyclohexylmalononitrile] |  | 100 | 100 | 0 |  |
| C=CCC(C#N)(C#N)Cc1ccc(Cl)cc1Cl [Compound 24, 2-allyl-2-(2,4-dichlorobenzyl)malononitrile] |  |  | 100 | 0 | 100 |
| C=CCC(C#N)(C#N)Cc1ccc([N+](=O)[O-])cc1 [Compound 50, 2-allyl-2-(4-nitrobenzyl)malononitrile] | 94.2 |  |  |  |  |
| CCC(C#N)(C#N)Cc1ccc(Cl)cc1 | 70.9 |  |  |  |  |
| C=CCCC(C#N)(C#N)C(c1ccc(Cl)cc1)C(C)C (stereo not drawn) [Compound 26, 2-(3-butenyl)-2-(1-(4-chlorophenyl)-2-methylpropyl)malononitrile] |  |  | 100 | 0 |  |
| C=CCC(C#N)(C#N)Cc1ccc(C)cc1 [Compound 77, 2-allyl-2-(4-methylbenzyl)malononitrile] | 74.5 |  |  |  |  |
| C=CCC(C#N)(C#N)Cc1c(F)c(F)c(F)c(F)c1F [Compound 62, 2-allyl-2-(2,3,4,5,6-pentafluorobenzyl)malononitrile] | 78.2 |  |  |  |  |
| C=CCC(C#N)(C#N)Cc1ccc(C(F)(F)F)cc1 [Compound 5, 2-allyl-2-(4-(trifluoromethyl)benzyl)malononitrile] |  | 100 | 100 | 0 |  |
| C=CCCC(C#N)(C#N)Cc1ccc(SC(F)(F)F)cc1 [Compound 42, 2-(3-butenyl)-2-(4-(trifluoromethylthio)benzyl)malononitrile] |  | 100 | 100 |  | 100 |
| C=CCC(C#N)(C#N)Cc1ccc(Cl)cc1 [Compound 1, 2-allyl-2-(4-chlorobenzyl)malononitrile] |  | 100 | 100 | 0 | 100 |
| C=CCC(C#N)(C#N)C(OC)c1ccc(Cl)cc1 (stereo not drawn) [Compound 84, 2-allyl-2-(4-chloro-α-methoxybenzyl)malononitrile] |  | 100 | 100 |  | 100 |

| SMILES | melting point [°C] | mortality at 500 ppm (German cockroach) [%] | mortality at 3.5 µg/mL (Cullex pipiens pallens) [%] | number of surviving pests on the 6th day after [1] | mortality at 500 ppm (Musca domestics) [%] |
| --- | --- | --- | --- | --- | --- |
| C=CCC(C#N)(C#N)C(C=C)c1ccc(OC(F)(F)F)cc1 (stereo not drawn) [Compound 33, 2-allyl-2-(1-(4-(trifluoromethoxy)phenyl)-2-propenyl)malononitrile] |  | 100 | 100 |  | 100 |
| C=CCC(C#N)(C#N)Cc1ccc(C(F)(F)F)cc1C(F)(F)F [Compound 57, 2-allyl-2-(2,4-bis(trifluoromethyl)benzyl)malononitrile] |  | 100 | 100 |  | 100 |
| C=CCCCC(C#N)(C#N)Cc1ccc(Cl)cc1 [Compound 21, 2-(4-chlorobenzyl)-2-(4-pentenyl)malononitrile] |  |  | 100 | 0 |  |
| C=CCCCC(C#N)(C#N)C(C)c1ccc(Cl)cc1 (stereo not drawn) [Compound 76, 2-(1-(4-chlorophenyl)ethyl)-2-(4-pentenyl)malononitrile] |  |  | 100 | 0 |  |
| C=CCC(C#N)(C#N)C(OC)c1ccc(SC(F)(F)F)cc1 (stereo not drawn) [Compound 43, 2-allyl-2-(4-(trifluoromethylthio)-α-methoxybenzyl)malononitrile] |  | 100 | 100 |  | 100 |
| C=CCC(C#N)(C#N)C(CCl)c1ccc(OC(F)(F)F)cc1 (stereo not drawn) [Compound 31, 2-allyl-2-(1-(4-(trifluoromethoxy)phenyl)-2-chloroethyl)malononitrile] |  | 100 | 100 |  | 100 |
| CC(C)CC(C#N)(C#N)Cc1ccc(Cl)cc1 [Compound 19, 2-(4-chlorobenzyl)-2-isobutylmalononitrile] |  |  | 100 | 0 |  |
| C=CCCC(C#N)(C#N)C(C)c1ccc(Cl)cc1 (stereo not drawn) [Compound 10, 2-(3-butenyl)-2-(1-(4-chlorophenyl)ethyl)malononitrile] |  | 100 | 100 | 0 | 100 |
| C=CCC(C#N)(C#N)Cc1ccc(OC(F)(F)F)cc1 [Compound 11, 2-allyl-2-(4-(trifluoromethoxy)benzyl)malononitrile] |  | 100 | 100 | 0 | 100 |
| C=CCC(C#N)(C#N)Cc1c(Cl)cc(C(F)(F)F)cc1Cl [Compound 64, 2-allyl-2-(2,6-dichloro-4-(trifluoromethyl)benzyl)malononitrile] |  | 100 | 100 |  | 100 |
| C=CCC(C#N)(C#N)C(C)(C)c1ccc(Cl)cc1 [Compound 2, 2-allyl-2-(1-(4-chlorophenyl)-1-methylethyl)malononitrile] |  | 100 | 100 | 0 |  |
| CC(C#N)(C#N)Cc1ccc(Cl)cc1 [Compound 68, 2-(4-chlorobenzyl)-2-methylmalononitrile] |  | 100 | 100 |  | 100 |
| C=CCC(C#N)(C#N)Cc1ccc(SC(F)(F)F)cc1 [Compound 41, 2-allyl-2-(4-(trifluoromethylthio)benzyl)malononitrile] |  | 100 | 100 |  | 100 |
| C=CC(C)C(C#N)(C#N)Cc1ccc(Cl)cc1 (stereo not drawn) [Compound 22, 2-(4-chlorobenzyl)-2-(1-methyl-2-propenyl)malononitrile] |  |  | 100 | 0 | 100 |
| C=CCC(C#N)(C#N)C(C)c1ccc(Cl)cc1 (stereo not drawn) [Compound 74, 2-allyl-2-(1-(4-chlorophenyl)ethyl)malononitrile] |  | 100 | 100 | 0 | 100 |
| C=CCC(C#N)(C#N)C(C)c1ccc(OC(F)(F)F)cc1 (stereo not drawn) [Compound 30, 2-allyl-2-(1-(4-(trifluoromethoxy)phenyl)ethyl)malononitrile] |  | 100 | 100 |  | 100 |
| C=CCC(C#N)(C#N)C(OC)c1ccc(OC(F)(F)F)cc1 (stereo not drawn) [Compound 39, 2-allyl-2-(4-(trifluoromethoxy)-α-methoxybenzyl)malononitrile] |  | 100 | 100 |  | 100 |
| C=CCC(C#N)(C#N)C(c1cccc(Cl)c1)C(C)C (stereo not drawn) [Compound 66, 2-allyl-2-(1-(3-chlorophenyl)-2-methylpropyl)malononitrile] |  |  | 100 | 0 | 100 |

— patent US20040142821A1, “Pesticide composition comprising malononitrile compounds” (priority 2001, published 2004)
